In patent publication US8288409B2, “Quinolizidinone M1 receptor positive allosteric modulators” (Merck Sharp & Dohme Corp., priority 2008, dated 2012) one finds EC50 data, which are given here for nine compounds.

Like-named read-outs stand apart in the source and are kept apart here.

For this experiment, the target named is T1, acetylcholine muscarinic M1 receptor (Homo sapiens, UniProt P11229).
T1 construct: expressed in transfected cells; host or cells: CHOnfat cells (CHO; also called CHOK1/hM1)
T1 sequence (P11229 1-460): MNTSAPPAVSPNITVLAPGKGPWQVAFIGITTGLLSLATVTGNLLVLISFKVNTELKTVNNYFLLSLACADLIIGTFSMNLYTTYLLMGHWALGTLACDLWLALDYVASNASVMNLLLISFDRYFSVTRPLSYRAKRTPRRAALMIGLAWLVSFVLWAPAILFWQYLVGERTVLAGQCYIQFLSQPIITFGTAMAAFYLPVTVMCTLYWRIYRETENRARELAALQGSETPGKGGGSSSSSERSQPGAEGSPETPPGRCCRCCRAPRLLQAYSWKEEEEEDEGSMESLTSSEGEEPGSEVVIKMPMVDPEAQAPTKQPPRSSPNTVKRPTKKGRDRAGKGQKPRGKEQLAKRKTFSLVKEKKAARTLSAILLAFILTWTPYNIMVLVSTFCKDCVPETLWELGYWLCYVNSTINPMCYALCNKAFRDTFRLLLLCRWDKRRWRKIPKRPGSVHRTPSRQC
Kind of experiment: FLIPR intracellular calcium assay for M1 receptor positive allosteric modulator activity. It counts as cell-based. As to the method:
The assay studies the effect of one or several concentrations of test compounds on basal or acetylcholine-stimulated Ca^2+ levels using FLIPR.
Compounds are prepared and subjected to a preincubation period of 4 min. Thereafter, a single EC20 concentration of acetylcholine is added to each well (3 nM final). The intracellular Ca^2+ level of each sample is measured and compared to an acetylcholine control to determine any modulatory activity.
Cells: CHOnfat/hM1, hM2, hM3 or hM4 cells are plated 24 hr before the assay at a density of 18,000 cells/well (100 μl) in a 384 well plate. CHOnfat/hM1 and CHOnfat/hM3 Growth Medium: 90% DMEM (Hi Glucose); 10% HI FBS; 2 mM L-glutamine; 0.1 mM NEAA; Pen-Strep; and 1 mg/ml Geneticin, are added. For M2Gqi5CHOnfat and M4Gqi5CHOnfat cells, an additional 600 μg/ml hygromycin is added.
Buffers. […] Dye Loading Buffer: Assay Buffer plus 1% Fetal Bovine Serum and Fluo-4AM/Pluronic Acid Mixture. […] 20% Pluronic Acid Solution stock, with a concentration of 0.04% in Buffer, 0.02% in Assay.
65 μL of 2 mM Fluo-4AM are mixed with 130 of 20% Pluronic Acid. The resulting solution and 650 μL FBS is added to the assay buffer for a total volume of 65 mL. Positive Controls: 4-Br-A23187: 10 mM in DMSO; final concentration 10 μM. Acetylcholine: 10 mM in water, working stock at both 20 μM and 30 μM in assay buffer, final concentration of 10 μM. This is used to check the maximum stimulation of the CHOK1/hM1 cells. 20 μM (2×) acetylcholine is added in the preincubation part of the assay, and the 30 μM (3×) stock is added in the second part. (EC20)Acetylcholine: 10 mM in water, working stock of 9 nM (3×), and final concentration in assay is 3 nM. This is used after the preincubation with test compounds. Addition of the EC20 Acetylcholine to each well with a test compound will ascertain any modulator activity. 24 wells contain 3 nM Acetylcholine alone as a control.
Determining Activity of Putative Compounds:
Four 96-well plates are combined into a 384-well plate using Mosquito Nanolitre Pipetting System by transferring 1 μl of serial diluted compounds to each well, and 1 mM acetylcholine (100× stock concentration) were added as a control. Using Temo, 49 μl assay buffer is added to each well of the 384-well plate right before assay.
In a 96-well Whatman 2 ml Uniplate, 9 nM Acetylcholine (3×) is pipetted into wells corresponding to the screening compounds and into control wells. The 30 μM acetylcholine control (3×) is added into control wells and the 3× agonist plate is transferred into a 384-well plate.
Cells are washed three times with 100 μL of buffer, leaving 30 μL of buffer in each well. Using Multimek, 30 μL of Dye Loading Buffer is added into each well and incubated at 37° C., 5% CO2 for up to one hr.
After 60 min, the cells are washed three times with 100 μL of buffer, leaving 30 μL of buffer in each well. The cell plate, screening plate, and agonist addition plates are placed on the platform in the FLIPR and the door is closed. A signal test to check background fluorescence and basal fluorescence signal is performed. Laser intensity is adjusted if necessary.
4 min of preincubation with the test compounds is provided to determine any agonist activity on the M1 receptor by comparison to the 1 mM acetylcholine control. After preincubation, the EC20 value of acetylcholine (3 nM final) is added to determine any modulator activity.

Where [1] appears, read: CHOnfat/hM1 cells, 4 min preincubation, then EC20 acetylcholine (3 nM final), intracellular Ca2+ by FLIPR384, read-out: IP Value (inflection point).

Regarding `O=C(O)c1cc(CN2CCC(c3ccc(C(F)(F)F)cc3)CC2)c2ccccn2c1=O` [Example 1, 4-oxo-1-({4-[4-(trifluoromethyl)phenyl]piperidin-1-yl}methyl)-4H-quinolizine-3-carboxylic Acid], the EC50 under setting [1] worked out at 548 nM.

For `O=C(O)c1cc(CN2CCC(c3nc4cc(F)ccc4[nH]3)CC2)c2ccccn2c1=O` [Example 86], the EC50 under setting [1] was determined as 42 nM.

`O=C(O)c1cc(CN2CCC(c3c[nH]c4ccc(O)cc34)CC2)c2ccccn2c1=O` [Example 83]: under setting [1], the EC50 amounted to 277 nM.

Turning to `O=C(O)c1cc(CN2CCCCC2c2ccncc2)c2ccccn2c1=O` (stereo not drawn) [Example 6], the EC50 under setting [1] stood at 2240 nM.

In the case of `O=C(O)c1cc(CN2CCCCC2c2nc3cc(F)ccc3[nH]2)c2ccccn2c1=O` (stereo not drawn) [Example 14], the EC50 under setting [1] amounted to 508 nM.

As to `O=C(O)c1cc(CN2CCCC(O)C2)c2ccccn2c1=O` (stereo not drawn) [Example 24], under setting [1], the EC50 turned out to be 8700 nM.

Take `O=C(O)c1cc(CN2CCC(c3nc4ccccc4[nH]3)CC2)c2ccccn2c1=O` [Example 85]: the EC50 under setting [1] came out at 122 nM.

Take `Cn1c(C2CCN(Cc3cc(C(=O)O)c(=O)n4ccccc34)CC2)nc2ccccc21` [Example 91, 1-{[4-(1-methyl-1H-benzimidazol-2-yl)piperidin-1-yl]methyl}-4-oxo-4H-quinolizine-3-carboxylic Acid]: the EC50 under setting [1] turned out to be 30500 nM.

`O=C(O)c1cc(CN2CCC(c3ccccc3)CC2)c2ccccn2c1=O` [Example 25]: the EC50 is 1340 nM.
